From US9296732B2, “Substituted benzamides and their uses” (The Board of Trustees of the Leland Stanford Junior …, priority 2012, dated 2016) come the findings set out here.

Tested on in one data set: not given
Assay: not given
Details: not given
A word on the melting point: it is the temperature of the solid-liquid transition. `COc1cccc(S(=O)(=O)Cc2nc(-c3ccc(C(=O)NCc4cccnc4)cc3)oc2C)c1` [Example 19, 4-(5-Methyl-4-{[(3-methoxyphenyl)sulfonyl]methyl}-1,3-oxazol-2-yl)-N-(3-pyridinylmethyl)benzamide] came in with a melting point of 143 to 145 °C.

`Cc1ccc(S(=O)(=O)Cc2nc(-c3ccc(C(=O)Nc4ccncc4)cc3)oc2C)cc1` [Example 2, 4-(5-Methyl-4-{[(4-methylphenyl)sulfonyl]methyl}-1,3-oxazol-2-yl)-N-(4-pyridinyl)benzamide] gave a melting point of 229 to 231 °C.

In turn, `Cc1oc(-c2ccc(C(=O)NCc3cccnc3)cc2)nc1CS(=O)(=O)c1ccc(Br)cc1` [Example 16, 4-(4-{[(4-Bromophenyl)sulfonyl]methyl}-5-methyl-1,3-oxazol-2-yl)-N-(3-pyridinylmethyl)benzamide] registered a melting point of 224 to 227 °C.

`Cc1ccc(S(=O)(=O)Cc2nc(-c3ccc(C(=O)NCCc4cccnc4)cc3)oc2C)cc1` [Example 8, 4-(5-Methyl-4-{[(4-methylphenyl)sulfonyl]methyl}-1,3-oxazol-2-yl)-N-[2-(3-pyridinyl)ethyl]benzamide] registered a melting point of 207 to 208 °C.

For the compound `Cc1oc(-c2ccc(C(=O)NCc3cccnc3)cc2)nc1CS(=O)(=O)c1ccc(F)cc1` [Example 22, 4-(4-{[(4-Fluorophenyl)sulfonyl]methyl}-5-methyl-1,3-oxazol-2-yl)-N-(3-pyridinylmethyl)benzamide], the melting point lay within 218 to 220 °C.

`COc1ccc(S(=O)(=O)Cc2nc(-c3ccc(C(=O)NCc4cccnc4)cc3)oc2C)cc1OC` [Example 20, 4-(4-{[(3,4-Dimethoxyphenyl)sulfonyl]methyl}-5-methyl-1,3-oxazol-2-yl)-N-(3-pyridinylmethyl)benzamide] had a melting point of 104 to 108 °C.

With `Cc1ccc(S(=O)(=O)Cc2nc(-c3ccc(C(=O)NCc4ccncc4)cc3)oc2C)cc1` [Example 6, 4-(5-Methyl-4-{[(4-methylphenyl)sulfonyl]methyl}-1,3-oxazol-2-yl)-N-(4-pyridinylmethyl)benzamide], the melting point lay within 169 to 172 °C.

With `Cc1oc(-c2ccc(C(=O)NCc3cccnc3)cc2)nc1CS(=O)(=O)c1ccc(N2CCOCC2)cc1` [Example 24, 4-[5-Methyl-4-({[4-(4-morpholinyl)phenyl]sulfonyl}methyl)-1,3-oxazol-2-yl]-N-(3-pyridinylmethyl)benzamide], the melting point lay in the range of 208 to 210 °C.

In turn, `Cc1ccc(S(=O)(=O)Cc2csc(-c3ccc(C(=O)NCc4cccnc4)cc3)n2)cc1` [Example 25, 4-(4-{[(4-Methylphenyl)sulfonyl]methyl}-1,3-thiazol-2-yl)-N-(3-pyridinylmethyl)benzamide] had a melting point of 178 to 181 °C.

In the case of `O=C(Nc1cccnc1)c1ccc(CNS(=O)(=O)c2ccc(Cl)nc2)cc1` [II-2, 4-({[(6-Chloro-3-pyridinyl)sulfonyl]amino}methyl)-N-(3-pyridinyl)benzamide], the melting point was 226 to 228 °C.

For the compound `Cc1ncc(S(=O)(=O)NCc2ccc(C(=O)Nc3cccnc3)cc2)n1C` [II-6, 4-({[(1,2-Dimethyl-1H-imidazol-5-yl)sulfonyl]amino}methyl)-N-(3-pyridinyl)benzamide], the melting point is 238 to 240 °C.

Compound `O=C(Nc1cccnc1)c1ccc(CNS(=O)(=O)c2nnc[nH]2)cc1` [II-7, N-(3-pyridinyl)-4-{[(4H-1,2,4-triazol-3-ylsulfonyl)amino]methyl}benzamide] registered a melting point of 266 to 269 °C.

Take `Cc1oc(-c2ccc(C(=O)NCc3cccnc3)cc2)nc1CS(=O)(=O)c1ccc(N2CCN(C)CC2)cc1` [Example 23, 4-[5-Methyl-4-({[4-(4-methyl-1-piperazinyl)phenyl]sulfonyl}methyl)-1,3-oxazol-2-yl]-N-(3-pyridinylmethyl)benzamide]: the melting point was 210 to 215 °C.

Turning to `Cc1ccc(S(=O)(=O)Cc2nc(-c3ccc(C(=O)NCc4ccccn4)cc3)oc2C)cc1` [Example 4, 4-(5-Methyl-4-{[(4-methylphenyl)sulfonyl]methyl}-1,3-oxazol-2-yl)-N-(2-pyridinylmethyl)benzamide], the melting point lay in the range of 154 to 155 °C.

Consider `Cc1cc(C)cc(S(=O)(=O)Cc2nc(-c3ccc(C(=O)NCc4cccnc4)cc3)oc2C)c1` [Example 15, 4-(4-{[(3,5-Dimethylphenyl)sulfonyl]methyl}-5-methyl-1,3-oxazol-2-yl)-N-(3-pyridinylmethyl)benzamide], for which the melting point lay within 188 to 190 °C.

Take `Cc1oc(-c2ccc(C(=O)NCc3ccccc3)cc2)nc1CS(=O)(=O)c1ccc(Br)cc1` [Example 27, N-Benzyl-4-(4-{[(4-bromophenyl)sulfonyl]methyl}-5-methyl-1,3-oxazol-2-yl)benzamide]: the melting point lay within 234 to 237 °C.

For the compound `Cc1ccc(S(=O)(=O)Cc2nc(-c3ccc(C(=O)N(C)Cc4cccnc4)cc3)oc2C)cc1` [Example 7, N-Methyl-4-(5-methyl-4-{[(4-methylphenyl)sulfonyl]methyl}-1,3-oxazol-2-yl)-N-(3-pyridinylmethyl)benzamide], the melting point lay in the range of 77 to 80 °C.

Turning to `Cc1ccc(S(=O)(=O)Cc2nc(-c3ccc(C(=O)Nc4cccnc4)cc3)oc2C)cc1` [Example 1, 4-(5-Methyl-4-{[(4-methylphenyl)sulfonyl]methyl}-1,3-oxazol-2-yl)-N-(3-pyridinyl)benzamide], the melting point was in the range of 248 to 250 °C.

On to `Cc1ccc(S(=O)(=O)Cc2nc(-c3ccc(C(=O)N(C)c4cccnc4)cc3)oc2C)cc1` [Example 3, N-Methyl-4-(5-methyl-4-{[(4-methylphenyl)sulfonyl]methyl}-1,3-oxazol-2-yl)-N-(3-pyridinyl)benzamide], for which the melting point was in the range of 195 to 197 °C.

`Cc1cccc(S(=O)(=O)Cc2nc(-c3ccc(C(=O)NCc4cccnc4)cc3)oc2C)c1` [Example 17, 4-(5-Methyl-4-{[(3-methylphenyl)sulfonyl]methyl}-1,3-oxazol-2-yl)-N-(3-pyridinylmethyl)benzamide] displayed a melting point of 179 to 181 °C.

In turn, `Cc1ccc(S(=O)(=O)Cc2nc(-c3ccc(C(=O)NCc4cncn4C)cc3)oc2C)cc1` [Example 11, N-[(1-Methyl-1H-imidazol-5-yl)methyl]-4-(5-methyl-4-{[(4-methylphenyl)sulfonyl]methyl}-1,3-oxazol-2-yl)benzamide] gave a melting point of 240 to 242 °C.

In the case of `Cc1oc(-c2ccc(C(=O)NCc3cccnc3)cc2)nc1CS(=O)(=O)c1ccc(Cl)cc1` [Example 13, 4-(4-{[(4-Chlorophenyl)sulfonyl]methyl}-5-methyl-1,3-oxazol-2-yl)-N-(3-pyridinylmethyl)benzamide], the melting point was 220 to 222 °C.

Consider `Cc1oc(-c2ccc(C(=O)NCc3cccnc3)cc2)nc1CS(=O)(=O)c1ccccc1` [Example 12, 4-[5-Methyl-4-[(phenylsulfonyl)methyl]-1,3-oxazol-2-yl]-N-(3-pyridinylmethyl)benzamide], for which the melting point lay in the range of 196 to 198 °C.

Compound `Cc1oc(-c2ccc(C(=O)NCc3cccnc3)cc2)nc1CS(=O)(=O)c1ccc(C(C)(C)C)cc1` [Example 14, 4-(4-{[(4-tert-Butylphenyl)sulfonyl]methyl}-5-methyl-1,3-oxazol-2-yl)-N-(3-pyridinylmethyl)benzamide] gave a melting point of 177 to 180 °C.

As to `Cc1ccc(S(=O)(=O)Cc2nc(-c3ccc(C(=O)NCc4nccn4C)cc3)oc2C)cc1` [Example 10, N-[(1-Methyl-1H-imidazol-2-yl)methyl]-4-(5-methyl-4-{[(4-methylphenyl)sulfonyl]methyl}-1,3-oxazol-2-yl)benzamide], the melting point lay in the range of 190 to 192 °C.

`Cc1ccc(S(=O)(=O)Cc2nc(-c3ccc(C(=O)NCc4cnccn4)cc3)oc2C)cc1` [Example 9, 4-(5-Methyl-4-{[(4-methylphenyl)sulfonyl]methyl}-1,3-oxazol-2-yl)-N-(2-pyrazinylmethyl)benzamide] returned a melting point of 204 to 206 °C.

`COc1ccc(S(=O)(=O)Cc2nc(-c3ccc(C(=O)NCc4cccnc4)cc3)oc2C)cc1` [Example 18, 4-(4-{[(4-Methoxyphenyl)sulfonyl]methyl}-5-methyl-1,3-oxazol-2-yl)-N-(3-pyridinylmethyl)benzamide] yielded a melting point of 189 to 191 °C.

The test system of the next data set is RCC4/VHL. Description: XTT cell viability assay, RCC4 with VHL-reintroduced (RCC4/VHL) versus RCC4, selectivity ratio. The format is cell-based. To be noted: first TABLE 1 (II series). Here is the method:
RCC4 parental and RCC4 with VHL-reintroduced (RCC4/VHL), SN12C and SN12C-CSCG-VHL shRNA were maintained in DMEM supplemented with 10% FCS.
For 2,3-bis[2-methoxy-4-nitro-5-sulfophenyl]-2H-tetrazolium-5-carboxanilide (XTT) assays, five thousand cells were plated in 96-well plates. The next day, vehicle (DMSO) or drug was added by serial dilution. Four days later, media were aspirated, XTT solution (0.3 mg/ml of XTT (Sigma), 2.65 mg/ml N-methyl dibenxopyrazine methyl sulfate (Simga) in phenol red-free media) was added, and the plates were incubated at 37° C. for 1-2 hours. Metabolism of XTT was quantified by measuring the absorbance at 450 nm. IC50s were calculated using linear interpolation. For clonogenic survival assays, three hundred cells were plated per 60 mm tissue culture dish. The cells were allowed to attach overnight and then treated with vehicle or drug for 14 days. Colonies were fixed and stained with crystal violet (0.1% crystal violet in 95% ethanol). All conditions were measured in triplicate and each experiment was done in duplicate or triplicate. To determine necrosis, cells were treated with drug for a given time point. Media and cells were collected, centrifugated, and resuspended in 0.4% trypan blue (Invitrogen). Live and dead cells were counted on a hematocytometer.
The designation A reflects an IC50 of <1 nM; B reflects an IC50 ranging from 1 to 20 nM; and C is an IC50 of >20 nM. The designation “a” reflects a ratio of RCC4/RCC-VHL+ ranging from 1 to ≦10; “b” reflects from 10 to ≦100; “c” reflects a ratio of >100. Compounds 1-29 have an IC50 value of ≦10 μM when tested in the above assay.
For orientation: Tetrazolium assays rely on reduction of a dye to a coloured formazan, in cell work by metabolically active cells.
As for `O=C(Nc1cccnc1)c1ccc(CNS(=O)(=O)c2cccnc2)cc1` [II-1, N-(3-Pyridinyl)-4-{[(3-pyridylsulfonyl)amino]methyl}benzamide], the “Ratio = IC50RCC4/VHL/IC50RCC4” value is “a (a ratio of RCC4/RCC-VHL+ ranging from 1 to ≦10)”.

Still in this data set, the particulars now being: second TABLE 1 (Examples 39-55).
Regarding `Cc1oc(-c2ccc(C(=O)NCc3cccnc3)cc2)nc1CS(=O)(=O)[C@@H]1CC[C@H](N)C1` [Example 50], the “Ratio (IC50 RCC4 Proficient VHL)/IC50 RCC4 Deficient VHL)” value was “b (from 10 to ≦100)”.

On to `Cc1oc(-c2ccc(C(=O)NCc3cccnc3)cc2)nc1CS(=O)(=O)C1CCNCC1` [Example 39, 4-(5-Methyl-4-((piperidin-4-ylsulfonyl)methyl)oxazol-2-yl)-N-(pyridin-3-ylmethyl)benzamide], for which the “Ratio (IC50 RCC4 Proficient VHL)/IC50 RCC4 Deficient VHL)” value is reported as “b (from 10 to ≦100)”.
